From EP0373645A1, “Imidazolyl and pyridyl derivatives of phenyl substituted 1,4 -dihyropyridines and process for their preparation” (priority 1988, dated 1990)

Experiments:
TxA₂ Synthase [1] = target: T1, TxA₂ Synthase (Rattus norvegicus, UniProt P49430); assay: In vitro effect on TxB₂ synthesis in whole blood during clotting (RIA); assay type: cell-based; conditions: for times more potent than the reference compound ASA (TxA₂ synthesis in whole blood): ratio to ASA; for times more potent than the reference compound Dazoxiben (TxA₂ synthesis in whole blood): ratio to Dazoxiben
T1 construct: Blood was withdrawn from the abdominal aorta of the animals; from tissue; host or cells: whole blood of reduced renal mass (RRM) rats, allowed to clot 1 h at 37°C
T1 sequence (P49430 1-533): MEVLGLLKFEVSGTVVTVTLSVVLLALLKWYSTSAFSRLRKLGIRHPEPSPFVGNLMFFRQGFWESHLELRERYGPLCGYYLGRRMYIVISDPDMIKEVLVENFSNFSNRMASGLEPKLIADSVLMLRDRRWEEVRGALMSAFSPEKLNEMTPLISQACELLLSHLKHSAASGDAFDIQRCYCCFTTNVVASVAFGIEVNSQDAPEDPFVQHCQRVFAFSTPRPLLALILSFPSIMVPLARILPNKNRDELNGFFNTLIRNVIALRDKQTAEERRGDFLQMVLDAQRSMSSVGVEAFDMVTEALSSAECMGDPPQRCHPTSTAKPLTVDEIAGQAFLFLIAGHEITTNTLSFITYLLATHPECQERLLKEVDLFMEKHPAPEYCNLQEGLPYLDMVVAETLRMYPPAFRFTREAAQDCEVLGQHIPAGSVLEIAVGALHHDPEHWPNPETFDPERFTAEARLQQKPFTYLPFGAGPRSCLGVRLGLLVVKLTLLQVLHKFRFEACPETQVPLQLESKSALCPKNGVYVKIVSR
Experimental: (§1) Their ability to inhibit TxA₂ Synthase activity (as reflected by TxB₂ generated in whole blood during clotting or in isolated glomeruli) was tested in vitro and ex vivo in the rat.
(§2) The effect of the compounds on TxA₂ synthesis was evaluated in serum and in glomeruli isolated from kidney cortex of reduced renal mass rats (RRM). Ablation of >70% of renal mass in the rat results in hypertension, proteinuria and glomerular sclerosis of the remnant kidney. Rats with a remnant kidney have increased excretion of thromboxane in the urine when compared with normal rats [Purkerson et al.-Proc.Natl.Acad.Sci.USA 82, 193, 1985].
Blood was withdrawn from the abdominal aorta of the animals under light ether anesthesia.
Samples were then allowed to clot for 1 h at 37°C, centrifuged at 3000 rpm for 10 min, serum collected and stored at -20°C until assayed. TxB₂ levels were determined by RIA according to previously described procedures [Patrono et al.-Thromb.Res. 17, 3/4, 317, 1980] using highly specific antibody.

[2] = Orientative acute oral toxicity; parameters: species or system Mice and rats; conditions: in vivo; single oral administration, assessed on the seventh day after treatment; read-out: orientative acute toxicity (LD₅₀)
Experimental: The toxicity of the compounds of the invention is negligible, so that they can be safely used in therapy. Mice and rats which had been deprived of food for nine hours were treated orally with single administrations of increasing doses of compounds of the invention, then housed and normally fed. For example the orientative acute toxicity (LD₅₀) of the compound FCE 24265, assessed on the seventh day after treatment, was higher than 800 mg/kg.

TxA₂ Synthase [3] = target: T1, TxA₂ Synthase; assay: In vitro effect on TxB₂ synthesis in isolated glomeruli (RIA); assay type: cell-based
Experimental: as §1, §2
The isolation of glomeruli was performed as previously described [Patrignani et al., - J. Pharm. Exp. Ther. 228, 2, 472, 1984]
The isolated glomeruli of 4 rats were pooled, suspended in modified Krebs buffer (pH 7.3) and divided into portions of 1 ml each containing a concentration of the test compounds or of the reference compounds.
The TxA₂ synthesis was induced by incubating the glomeruli under shaking at 37°C for 1 h. At that time the incubation was stopped by centrifugation at +4°C, the supernatant collected and stored at -20°C until assayed by RIA.

TxA₂ Synthase [4] = target: T1, TxA₂ Synthase; assay: Ex vivo inhibition of TxA₂ synthesis in serum after oral administration; conditions: 1 h, p.o., blood taken one hour after treatment, read-out: ED₅₀ inhibition of the synthesis of TxA₂ (ex vivo)
Experimental: as §1
The ex vivo experiments were performed as follows.
The compounds were orally administered to RRM rats by gavage at the dose of 2.5 mg/kg in 0.5% methocel. One hour after treatment rats were anaesthetised with ether, blood was withdrawn from the abdominal aorta and allowed to clot for 1 h at 37°C. Samples were then centrifuged, serum collected and stored at -20°C until assayed.

[5] = system: chronically cannulated hypertensive rats (SHR); assay: Antihypertensive activity, intra-arterial blood pressure and heart rate; assay type: in vivo
Experimental: The antihypertensive activity of the compounds of the invention was tested in chronically cannulated hypertensive rats (SHR).
For intra-arterial measurements of blood pressure (MBP) catheters (PE50 Clay Adams) were implanted in the right carotid artery under alothane anesthesia. Two days after surgery the animals were placed in a Ballman cage and the arterial catheter was connected to a stathman P23 Db pressure transducer and a Beckman multichannel R611 BP recorder for continuous monitoring of MBP and heart rate (HR).
Measurements were made predrug and 0.5, 1, 2, 4, 6 h after drug or vehicle (methocel 0.5% w/v).

[6] = RRM rats whole blood, clotting 1 h at 37°C, read-out: In vitro effect on TxB₂ synthesis in RRM rats whole blood, IC₅₀

Structure (SMILES)	IC50 (TxA₂ Synthase [1]; [6]) [µM]	times more potent than the reference compound ASA (TxA₂ synthesis in whole blood) (TxA₂ Synthase [1]) [times]	times more potent than the reference compound Dazoxiben (TxA₂ synthesis in whole blood) (TxA₂ Synthase [1]) [times]	LD50 at 168 h [2] [mg/kg]	IC50 (TxA₂ Synthase [3]; RRM rats isolated glomeruli, incubation 1 h at 37°C, read-out: In vitro effect on TxB₂ synthesis in RRM rats glomeruli, IC₅₀) [µM]	times more potent than ASA on glomerular TxB₂ synthesis (TxA₂ Synthase [3]; glomeruli, ratio to ASA)	times more potent than Dazoxiben on glomerular TxB₂ synthesis (TxA₂ Synthase [3]; glomeruli, ratio to Dazoxiben) [times]	ED50 (TxA₂ Synthase [4]) [mg/kg]	changes in heart rate [5]	time until blood pressure returned toward normal levels ([5]; after treatment) [h]	peak effect on blood pressure (MBP) ([5]; peak reached at 30 minutes postdrug) [mm Hg]	IC50 (TxA₂ Synthase [3]) [µM]	IC50 (TxA₂ Synthase [1]) [µM]
CCOC(=O)C1=C(C)NC(C)=C(C(=O)OCC)C1c1cccc(-c2cccnc2)c1 [FCE 26055, 1,4-dihydro-2,6-dimethyl-4-[3-(3-pyridyl)phenyl]-3,5-pyridinedicarboxylic acid, diethyl ester]	0.45	90	3										
CCOC(=O)C1=C(C)NC(C)=C(C(=O)OCC)C1c1cccc(-n2ccnc2)c1 [FCE 24265, 1,4-dihydro-2,6-dimethyl-4-[3-(1H-imidazol-1-yl)phenyl]-3,5-pyridinedicarboxylic acid, diethyl ester]	0.17	247	7	> 800	0.036	~4,000 times	4.7	2.3	No changes	3	-30 ± 4		
CC(=O)Oc1ccccc1C(=O)O [ASA, Acetylsalicylic acid, reference compound]												140	42
